Assay results reported in patent US8809341B2, “2,4-pyrimidinediamine compounds and uses as anti-proliferative agents” (Rigel Pharmaceuticals, Inc., priority 2003, dated 2014).
Each block holds one compound with its values, some of them ahead of it.

Tests used:
[1] = test system: A549 cells; assay: in vitro antiproliferation assay, A549 (lung); format: cell-based
Outline: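 Standard in vitro antiproliferation assays on tumour cell lines, including A549 and H1299 (both lung); IC50 values determined.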

[2] = test system: H1299 cells; assay: in vitro antiproliferation assay, H1299 (lung); format: cell-based
Method: The IC50 values of various compounds against a various different tumor cell lines were determined using standard in vitro antiproliferation assays. The tumor cell lines tested were as follows: A549 (lung); H1299 (lung), ACHN (kidney/p53 wt), CAKI (renal cell carcinoma), NCI-H460 (lung); HCT116 (colon/p53w0; HELA (cervix/p53 wt), HUH7 (liver/p53 wt), HUVEC (primary endothelial), LNCAP (prostate), HT-29 (colon); MCF-7 (breast); MCF-7 (breast/ER positive), MDA MB435S (breast); MDA MB231 (breast/ER negative), DU145 (prostate); BxPC-3 (pancreatic); SKOV-3 (ovarian); HepG2 (hepatic), NDHF primary normal human dermal fibroblast), SKMEL28 (breast/p53mut), SKMEL5 (breast/p53 wt), U20S (bone) and PC3 (prostate). […] A blank indicates the specified compound was not tested against the specified cell line.

[3] = A549 (lung) cells, in vitro antiproliferation
[4] = H1299 (lung) cells, in vitro antiproliferation
[5] = Table 5, in vitro antiproliferation, A549 (lung) cells
[6] = Table 5, in vitro antiproliferation, H1299 (lung) cells
[7] = Homo sapiens, IC50 class against A549 (lung) tumor cells
[8] = Homo sapiens, NCI-H1299, IC50 class against H1299 (lung) tumor cells
[9] = IC50 class against A549 (lung) tumor cells
[10] = IC50 class against H1299 (lung) tumor cells
[11] = A549 (lung) cells, antiproliferation
[12] = H1299 (lung) cells, antiproliferation

Compound: Cc1c(O)cccc1Nc1ncc(F)c(Nc2ccc3c(c2)NC(=O)C(C)(C)O3)n1 [compound 1064]
IC50 ([1]; A549 (lung) cells): ≤ 20 µM | IC50 ([2]; H1299 (lung) cells): ≤ 20 µM

Compound: CC(C)(C)c1ccc(Nc2ncc(F)c(Nc3ccc(C(C)(C)C)cc3)n2)cc1 [compound 718]
IC50 [1, 3]: > 20 µM | IC50 [2, 4]: > 20 µM

Compound: COc1cc(Nc2nc(Nc3cc(C)c(O)c(Cl)c3)ncc2F)cc(C(F)(F)F)c1 [compound 822]
IC50 [1, 3]: ≤ 20 µM | IC50 [2, 4]: ≤ 20 µM

Compound: Cc1cc(O)cc(Nc2ncc(F)c(Nc3ccc4c(c3)OCCO4)n2)c1 [compound 521]
IC50 [1, 5]: ≤ 20 µM | IC50 [2, 6]: > 20 µM

Compound: COc1c(C)cc(Nc2ncc(F)c(Nc3cccc(Nc4ncc[nH]4)c3)n2)cc1C [compound 1050]
IC50 [1, 7]: ≤ 20 µM | IC50 [2, 8]: ≤ 20 µM

Compound: CNC(=O)COc1c(C)cc(Nc2ncc(F)c(Nc3ccc4c(c3)OC(F)(F)C(F)(F)O4)n2)cc1C [compound 575]
IC50 [1, 5]: ≤ 20 µM | IC50 [2, 6]: ≤ 20 µM

Compound: CCCCn1ncc2cc(Nc3ncc(F)c(Nc4ccc(Cl)c(Cl)c4)n3)ccc21 [compound 1083]
IC50 ([1]; A549 (lung) cells): ≤ 20 µM | IC50 ([2]; H1299 (lung) cells): ≤ 20 µM

Compound: CCCn1ncc2cc(Nc3ncc(F)c(Nc4ccc5c(c4)NC(=O)C(C)(C)O5)n3)ccc21 [compound 1076]
IC50 ([1]; A549 (lung) cells): ≤ 20 µM | IC50 ([2]; H1299 (lung) cells): ≤ 20 µM

Compound: COc1cc(Nc2nc(Nc3cc(OC)c(OC)c(OC)c3)ncc2F)cc(C(F)(F)F)c1 [compound 821]
IC50 [1, 3]: ≤ 20 µM | IC50 [2, 4]: ≤ 20 µM

Compound: Fc1cc(F)cc(Nc2ncc(F)c(Nc3ccc4c(c3)OCCO4)n2)c1 [compound 524]
IC50 [1, 5]: > 20 µM | IC50 [2, 6]: > 20 µM

Compound: COc1cc(Nc2ncc(F)c(Nc3cccc(OC(F)(F)F)c3)n2)cc(OC)c1 [compound 812]
IC50 [1, 3]: ≤ 20 µM | IC50 [2, 4]: ≤ 20 µM

Compound: NC(=O)COc1ccc(Nc2nc(Nc3cccc(O)c3)ncc2F)cc1 [compound 974]
IC50 [1, 11]: ≤ 20 µM | IC50 [2, 12]: ≤ 20 µM

Compound: CCOC(=O)COc1cccc(Nc2nc(Nc3cc(OC)cc(OC)c3)ncc2F)c1 [compound 769]
IC50 [1, 3]: > 20 µM | IC50 [2, 4]: > 20 µM

Compound: CNC(=O)COc1cccc(Nc2ncc(F)c(Nc3ccc(Cl)c(Cl)c3)n2)c1 [compound 697]
IC50 [1, 3]: ≤ 20 µM | IC50 [2, 4]: ≤ 20 µM

Compound: COC(=O)c1cc2cc(Nc3ncc(F)c(Nc4cc(OC)cc(OC)c4)n3)ccc2o1 [compound 656]
IC50 ([1]; Table 7, in vitro antiproliferation, A549 (lung) cells): > 20 µM | IC50 ([2]; Table 7, in vitro antiproliferation, H1299 (lung) cells): > 20 µM

Compound: CNC(=O)COc1c(C)cc(Nc2ncc(F)c(Nc3ccc4c(c3)OCO4)n2)cc1C [compound 570]
IC50 [1, 5]: ≤ 20 µM | IC50 [2, 6]: ≤ 20 µM

Compound: NC(=O)c1ccc(Nc2nc(Nc3cccc(O)c3)ncc2F)cc1 [compound 1026]
IC50 [1, 11]: > 20 µM | IC50 [2, 12]: ≤ 20 µM

Compound: COc1cc(Nc2ncc(F)c(Nc3cc(C)cc(C)c3)n2)cc(OC)c1 [compound 814]
IC50 [1, 3]: ≤ 20 µM | IC50 [2, 4]: ≤ 20 µM

Compound: COc1ccc(Nc2ncc(F)c(Nc3ccc(OC)c(Cl)c3)n2)cc1Cl [compound 800]
IC50 [1, 3]: ≤ 20 µM | IC50 [2, 4]: > 20 µM

Compound: COc1cc(Nc2nc(Nc3ccc4cnn(C(C)(C)CC5CCC5)c4c3)ncc2F)ccc1F [compound 1105]
IC50 ([1]; A549 (lung) cells): ≤ 20 µM | IC50 ([2]; H1299 (lung) cells): ≤ 20 µM

Now from value to compound:

IC50 [1, 7]: > 20 µM | IC50 [2, 8]: > 20 µM
Compound: CCOC(=O)N1CCN(c2cccc(Nc3ncc(F)c(Nc4cccc(Nc5ncc[nH]5)c4)n3)c2)CC1 [compound 1055]

IC50 [1, 9]: ≤ 20 µM | IC50 [2, 10]: ≤ 20 µM
Compound: CN1CCN(c2ccc(Nc3ncc(F)c(NC4CCC4)n3)cc2CO)CC1 [compound 174]

IC50 [1, 9]: ≤ 20 µM | IC50 [2, 10]: ≤ 20 µM
Compound: CN1CCN(c2ccc(Nc3ncc(F)c(NC4CCCC4)n3)cc2)CC1 [compound 134]

IC50 ([1]; A549 (lung) cells): ≤ 20 µM | IC50 ([2]; H1299 (lung) cells): ≤ 20 µM
Compound: CC1(C)Oc2ccc(Nc3nc(Nc4ccc5cnn(C(C)(C)CC6CCCCC6)c5c4)ncc3F)cc2NC1=O [compound 1096]

IC50 [1, 9]: ≤ 20 µM | IC50 [2, 10]: ≤ 20 µM
Compound: Cc1cc(Nc2ncc(F)c(Nc3ccc4c(n3)NCCO4)n2)ccc1N1CCN(C)CC1 [compound 616]

IC50 [1, 7]: ≤ 20 µM | IC50 [2, 8]: ≤ 20 µM
Compound: CCOC(=O)N1CCN(c2ccc(Nc3ncc(F)c(Nc4cc(C5CC5)[nH]n4)n3)cc2)CC1 [compound 209]

IC50 [1, 9]: ≤ 20 µM | IC50 [2, 10]: ≤ 20 µM
Compound: CC(=O)N1CCN(c2ccc(Nc3ncc(F)c(NC4CCCC4)n3)cc2)CC1 [compound 133]

IC50 [1, 7]: ≤ 20 µM | IC50 [2, 8]: ≤ 20 µM
Compound: CN1CCN(c2ccc(Nc3ncc(F)c(Nc4cc(C5CC5)[nH]n4)n3)cc2)CC1 [compound 206]

IC50 [1, 11]: > 20 µM | IC50 [2, 12]: > 20 µM
Compound: CNC(=O)COc1cccc(Nc2ncc(F)c(Nc3ccc(N4CCOCC4)cc3)n2)c1 [compound 992]

IC50 [1, 9]: ≤ 20 µM | IC50 [2, 10]: ≤ 20 µM
Compound: CC(=O)N1CCN(c2ccc(Nc3ncc(F)c(NC4CCC4)n3)cc2)CC1 [compound 154]
